Experimental data: paper PMC11359809, “Probing the molecular basis for signal transduction through the Zinc-Activated Channel (ZAC)” (Biochemical pharmacology, 2021)
Residue numbers refer to the chain shown, from its start.

How the values were obtained:
ZAC^L9′I = target: T1, ZAC^L9′I (Homo sapiens, UniProt Q401N2, A152T/L270I); test: TEVC in oocytes, ZAC L9′I mutant; type: cell-based; settings: TC 100 μM; outward currents compared to WT ZAC and ZAC^L9′A
T1 construct: expressed in transfected cells; host or cells: Xenopus oocytes (cRNA injection, pUNIV vector)
T1 sequence (Q401N2 26-412 A152T/L270I): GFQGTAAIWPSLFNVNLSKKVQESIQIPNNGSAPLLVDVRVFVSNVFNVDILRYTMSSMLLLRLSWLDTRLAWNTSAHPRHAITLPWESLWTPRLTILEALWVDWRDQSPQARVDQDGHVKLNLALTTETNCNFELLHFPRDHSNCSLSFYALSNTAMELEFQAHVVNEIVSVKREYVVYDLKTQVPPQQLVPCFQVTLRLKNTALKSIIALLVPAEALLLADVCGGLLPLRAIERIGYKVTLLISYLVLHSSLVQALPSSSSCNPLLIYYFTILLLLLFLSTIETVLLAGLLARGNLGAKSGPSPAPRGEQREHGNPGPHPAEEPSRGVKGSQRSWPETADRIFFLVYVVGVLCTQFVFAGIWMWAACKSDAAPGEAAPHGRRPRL
Method: (§1) The recordings were performed at room temperature.
(§2) Analysis of the data from the TEVC recordings were performed using Clampfit software version 10.5 (Molecular Devices, Crawley, UK) and GraphPad Prism version 7.0c (GraphPad Software, La Jolla, CA). Unless otherwise stated, the inward currents induced by agonists in oocytes were normalized to the maximal response elicited by a specific agonist (agonist Imax) on each oocyte. Concentration-response and concentration-inhibition curves were fitted in GraphPad Prism by nonlinear regression using the equation for sigmoidal dose-response with variable slope. Each data point represents the mean ± S.E.M. value of recordings performed on at least five oocytes in total from at least two different batches. For the data where statistical analysis was performed, a one-way ANOVA was used. The null hypothesis was rejected at P < 0.05, and the differences between the means were analyzed by Tukey’s multiple comparisons test.

WT ZAC = target: T2, WT ZAC (Homo sapiens, UniProt Q401N2, A152T); test: TEVC in Xenopus oocytes expressing WT ZAC; type: cell-based; settings: TC 100 μM
T2 construct: expressed in transfected cells; host or cells: Xenopus oocytes injected with cRNA (pUNIV vector)
T2 sequence (Q401N2 26-412 A152T): T1 sequence (Q401N2 26-412 A152T/L270I) with I245L
Method: as §1, §2

ZAC^L9′V = target: T3, ZAC^L9′V (Homo sapiens, UniProt Q401N2, A152T/L270V); test: TEVC in oocytes, ZAC L9′V mutant; type: cell-based; settings: TC 100 μM; outward currents compared to WT ZAC and ZAC^L9′A
T3 construct: expressed in transfected cells; host or cells: Xenopus oocytes (cRNA injection, pUNIV vector)
T3 sequence (Q401N2 26-412 A152T/L270V): T1 sequence (Q401N2 26-412 A152T/L270I) with I245V
Method: as §1, §2

ZAC^L9′A = target: T4, ZAC^L9′A (Homo sapiens, UniProt Q401N2, A152T/L270A); test: TEVC in oocytes, ZAC L9′A mutant; type: cell-based; settings: TC 100 μM
T4 construct: expressed in transfected cells; host or cells: Xenopus oocytes injected with cRNA (pUNIV vector)
T4 sequence (Q401N2 26-412 A152T/L270A): T1 sequence (Q401N2 26-412 A152T/L270I) with I245A
Method: as §1, §2

ZAC^L9′T = target: T5, ZAC^L9′T (Homo sapiens, UniProt Q401N2, A152T/L270T); test: TEVC in oocytes, ZAC L9′T mutant; type: cell-based; settings: TC 100 μM; outward currents compared to WT ZAC and ZAC^L9′A
T5 construct: expressed in transfected cells; host or cells: Xenopus oocytes (cRNA injection, pUNIV vector)
T5 sequence (Q401N2 26-412 A152T/L270T): T1 sequence (Q401N2 26-412 A152T/L270I) with I245T
Method: as §1, §2

[1] = tested on: ZAC^L9′X mutants (L9′A, L9′V, L9′I, L9′T); test: TEVC in oocytes, all four L9′X mutants (collective statement); type: cell-based, human; settings: TC 100 μM; 1 mM Zn^2+; range over all four mutants
Method: as §1, §2
Fig. 8. Functional importance of the Leu9′ residue in ZAC. […] B. Resting membrane potentials (left) and leak currents (right) recorded from oocytes expressing WT ZAC, ZAC^L9′A, ZAC^L9′T, ZAC^L9′V and ZAC^L9′I. Data are given as mean ± S.E.M. values (n = 40–60). C. […]

## COc1cc2c3cc1Oc1cc(ccc1O)C[C@@H]1c4c(cc(OC)c(O)c4Oc4ccc(cc4)C[C@@H]3N(C)CC2)CC[N+]1(C)C [TC, tubocurarine]
ZAC^L9′I
  I100 μM TC (antagonist-evoked current, spontaneous activity): substantially higher amplitudes
WT ZAC
  I100 μM TC (antagonist-evoked current, spontaneous activity): small but significant outward currents
ZAC^L9′V
  I100 μM TC (antagonist-evoked current, spontaneous activity): substantially higher amplitudes
ZAC^L9′A
  I100 μM TC (antagonist-evoked current, spontaneous activity): small but significant outward currents
ZAC^L9′T
  I100 μM TC (antagonist-evoked current, spontaneous activity): substantially higher amplitudes
[1]
  I100 μM TC/(IZn2+ max + I100 μM TC) ratio (degree of spontaneous activity): 34–40%
